Data from patent US5160727A, “Tumor cell sensitization method using quinazolinedione derivatives” (priority 1990, dated 1992).
Where a name gives a salt, the structure may show the parent alone. Read-outs that look alike come from different tables or passages of the source.

Test system: P388R cells
Assay: Potentiation of adriamycin activity and cell growth in P388 resistant cells (Table II)
Type: cell-based, murine
Conditions: for activity at 5 µM / activity at 10 µM: Mus musculus; for Degree of ADR Potentiation in P388R: footnote a (drawing 3)
Description: The P388 murine leukemia cells used in obtaining the data set forth in Table I and Table II were obtained from Southern Research Institute (Birmingham, Ala.) and were cultured from ascites fluids of tumor-bearing DMA/2 mice and maintained in Fischer's medium supplemented with 10% horse serum, 10 μM 2-mercaptoethanol, and gentamycin (50 μg/mL). Cells were counted with a Model ZF Coulter Counter (Coulter Electronics, Inc., Hialeah, Fla.). Viability was determined by trypan blue exclusion. […] Cancer Inst.

[1] = P388, test compound at 5 μM, read-out: % of Control Cell Growth
[2] = P388, test compound at 10 μM, read-out: % of Control Cell Growth
[3] = test compound at 5 μM with adriamycin
[4] = test compound at 10 μM with adriamycin
[5] = P388, read-out: % of Control Cell Growth

| Compound | activity at 5 µM [1] [%] | activity at 10 µM [2] [%] | Degree of ADR Potentiation in P388R [3] | Degree of ADR Potentiation in P388R [4] | activity at 5 µM [5] [%] | activity at 10 µM [5] [%] |
| --- | --- | --- | --- | --- | --- | --- |
| CCCSc1ccccc1N1CCN(CCCn2c(=O)[nH]c3ccccc3c2=O)CC1.Cl [Example 2, 3-[3-[4-[2-(propylthio)phenyl]-1-piperazinyl]propyl]-2,4-(1H,3H)-quinazolinedione monohydrochloride] | 89 | 87 | 13.1 | 22.0 | – | – |
| CCCSc1ccccc1N1CCN(CCCCn2c(=O)[nH]c3ccc(Cl)cc3c2=O)CC1.Cl [Example 3, 6-chloro-3-[4-[4-[2-(propylthio)phenyl]-1-piperazinyl]butyl]-2,4-(1H,3H)quinazolinedione monohydrochloride] | 100 | 88 | 19.6 | 44.7 | – | – |
| Cl.O=c1[nH]c2ccccc2c(=O)n1CCCCN1CCN(c2cccc(Cl)c2Cl)CC1 [Example 4, 3-[4-[4-(2,3-dichlorophenyl)-1-piperazinyl]butyl]-2,4-(1H,3H)-quinazolinedione monohydrochloride] | – | – | 21.8 | 31.7 | 76 | 76 |
| CCSc1ccccc1N1CCN(CCCCn2c(=O)[nH]c3ccccc3c2=O)CC1.Cl [Example 5, 3-[4-[4-[2-(ethylthio)phenyl)-1-piperazinyl]butyl]-2,4-(1H,3H)-quinazolinedione monohydrochloride] | 79 | 78 | 19.6 | 46.6 | – | – |
| CC(C)Sc1ccccc1N1CCN(CCCCn2c(=O)[nH]c3ccccc3c2=O)CC1.Cl [Example 6, 3-[4-[4-[2-[(1-methylethyl)thio]phenyl]-1-piperazinyl]butyl]-2,4-(1H,3H)-quinazolinedione monohydrochloride] | 91 | 59 | 24.2 | 52.2 | – | – |
| CSc1ccccc1N1CCN(CCCCn2c(=O)[nH]c3ccccc3c2=O)CC1 [Example 7, 3-[4-[4-[2-methylthio)phenyl]-1-piperazinyl]butyl]-2,4(1H,3H)quinazolinedione monohydrochloride] | 95 | 72 | 25.2 | 48.4 | – | – |
| CCCCSc1ccccc1N1CCN(CCCCn2c(=O)[nH]c3ccccc3c2=O)CC1.Cl [Example 8, 3-[4-[4-[2-(butylthio)phenyl]-1-piperazinyl]butyl]-2,4-(1H,3H)-quinazolinedione monohydrochloride] | 88 | 86 | 25.0 | 48.4 | – | – |
| CCCSc1ccccc1N1CCN(CCCCn2c(=O)[nH]c3cc(Cl)ccc3c2=O)CC1.Cl [Example 9, 7-chloro-3-[4-[4-[2-(propylthio)phenyl]-1-piperazinyl]butyl]2,4(1H,3H)-quinazolinedione monohydrochloride] | 100 | 85 | 22.2 | 35.4 | – | – |
| CCCSc1ccccc1N1CCN(CCCCn2c(=O)[nH]c3ccc(C)cc3c2=O)CC1.Cl [Example 10, 6-methyl-3-[4-[4[2(propylthio)phenyl]-1-piperazinyl]butyl]-2,4(1H,3H)-quinazolinedione monohydrochloride] | 92 | 85 | 21.0 | 48.4 | – | – |
| CCCSc1ccccc1N1CCN(CCCCCCn2c(=O)[nH]c3ccccc3c2=O)CC1 [Example 11, 3-[6-[4-[2-(propylthio)phenyl]-1-piperazinyl]hexyl]-2,4-(1H,3H)quinazolinedione monohydrochloride, 1/3 hydrate] | 99 | 66 | 73.8 | 52.2 | – | – |
| CCCSc1ccccc1N1CCN(CCCCn2c(=O)c3ccccc3n(C)c2=O)CC1 [Example 12, 1-methyl-3-[4-[4-[2-(propylthio)phenyl]-1-piperazinyl]butyl] -2,4-(1H,3H)quinazolinedione] | 100 | 87 | 17.9 | 39.1 | – | – |
| CCCSc1ccccc1N1CCN(CCCCn2c(=O)[nH]c3cc(OC)c(OC)cc3c2=O)CC1 [Example 13, 6,7-dimethoxy-3-[4-[4-[2-(propylthio)phenyl]-1-piperazinyl]butyl]-2,4-(1H,3H)-quinazolinedione] | 100 | 10.4 | 93.0 | 52.2 | – | – |
| CCCSc1ccccc1N1CCN(CCCCCn2c(=O)[nH]c3cc(OC)c(OC)cc3c2=O)CC1 [Example 14, 6,7-dimethoxy-3-[5-[4-[2-(propylthio)phenyl]-1-piperazinyl]pentyl]-2,4(1H,3H)-quinazolinedione] | 53 | 1.2 | 65.0 | – | – | – |
| CCCSc1ccccc1N1CCN(CCCCn2c(=O)c3cc(OC)c(OC)cc3n(C)c2=O)CC1 [Example 15, 6,7-dimethoxy-1-methyl-3-[4-[4-[2-(propylthio)phenyl]-1-piperazinyl]butyl]-2,4(1H,3H)-quinazolinedione] | 46 | 2.6 | 21.2 | – | – | – |
| CCCSc1ccccc1N1CCN(CCCCCn2c(=O)c3cc(OC)c(OC)cc3n(C)c2=O)CC1 [Example 16, 6,7-dimethoxy-1-methyl-3-[5-[4-[2-(propylthio)phenyl]-1-piperazinyl]pentyl]-2,4(1H,3H)-quinazolinedione] | 33 | 4.2 | 44.5 | – | – | – |
| CCCSc1ccccc1N1CCN(CCCCn2c(=O)[nH]c3c(OC)cccc3c2=O)CC1 [Example 17, 8-methoxy-3-[4-[4-[2-(propylthio)phenyl]-1-piperazinyl]butyl]-2,4-(1H,3H)quinazolinedione] | 83 | 39 | 3.4 | 67.2 | – | – |
| CCCSc1ccccc1N1CCN(CCCCn2c(=O)c3cccc(OC)c3n(C)c2=O)CC1.Cl [Example 18, 8-methoxy-1-methyl-3-[4-[4-[2-(propylthio)phenyl]-1-piperazinyl]butyl]-2,4-(1H,3H)quinazolinedione monohydrochloride] | 100 | 87 | 21.1 | 24.6 | – | – |
| CCCSc1ccccc1N1CCN(CCCCCn2c(=O)[nH]c3ccccc3c2=O)CC1 [Example 19, 3-[5-[4-[2-(propylthio)phenyl]-1-piperazinyl]pentyl]-2,4-(1H,3H)-quinazolinedione] | 100 | 68 | 36.7 | 66.9 | – | – |
